Test results taken from patent US20120122860A1, “SOLID FORMS OF SULFONAMIDES AND AMINO ACIDS” (Plexxikon, Inc., priority 2009, published 2012).

Columns and labels:
[1] = target: B-Raf (Homo sapiens, UniProt P15056); assay: Kinase activity assay, B-Raf; assay type: biochemical; conditions: read-out: activity toward kinase B-Raf, IC50
[2] = target: B-Raf V600E (Homo sapiens, UniProt P15056, V600E); assay: Kinase activity assay, B-Raf V600E; assay type: biochemical; conditions: read-out: activity toward kinase B-Raf V600E, IC50
[3] = target: Kdr (Homo sapiens, UniProt P35968); assay: Kinase activity assay, Kdr
[4] = target: Src (Homo sapiens, UniProt P12931); assay: Kinase activity assay, Src
[5] = target: TrkA (Homo sapiens, UniProt P04629); assay: Kinase activity assay, TrkA
[6] = target: C-Raf (Homo sapiens, UniProt P04049); assay: Kinase activity assay, C-Raf
[7] = target: Fms (Homo sapiens, UniProt P07333); assay: Kinase activity assay, Fms
[8] = target: Kit (Homo sapiens, UniProt P10721); assay: Kinase activity assay, Kit
[9] = target: Flt1 (Homo sapiens, UniProt P17948); assay: Kinase activity assay, Flt1
[10] = target: PI3Kα (Homo sapiens, UniProt P42336); assay: Kinase activity assay, PI3Kα
[11] = target: MAP4K4 (Homo sapiens, UniProt O95819); assay: Kinase activity assay, MAP4K4
[12] = target: Btk (Homo sapiens, UniProt Q06187); assay: Kinase activity assay, Btk
[13] = target: T1, TEC (Homo sapiens, UniProt P42680); assay: Kinase activity assay, TEC
T1 sequence (P42680 1-631): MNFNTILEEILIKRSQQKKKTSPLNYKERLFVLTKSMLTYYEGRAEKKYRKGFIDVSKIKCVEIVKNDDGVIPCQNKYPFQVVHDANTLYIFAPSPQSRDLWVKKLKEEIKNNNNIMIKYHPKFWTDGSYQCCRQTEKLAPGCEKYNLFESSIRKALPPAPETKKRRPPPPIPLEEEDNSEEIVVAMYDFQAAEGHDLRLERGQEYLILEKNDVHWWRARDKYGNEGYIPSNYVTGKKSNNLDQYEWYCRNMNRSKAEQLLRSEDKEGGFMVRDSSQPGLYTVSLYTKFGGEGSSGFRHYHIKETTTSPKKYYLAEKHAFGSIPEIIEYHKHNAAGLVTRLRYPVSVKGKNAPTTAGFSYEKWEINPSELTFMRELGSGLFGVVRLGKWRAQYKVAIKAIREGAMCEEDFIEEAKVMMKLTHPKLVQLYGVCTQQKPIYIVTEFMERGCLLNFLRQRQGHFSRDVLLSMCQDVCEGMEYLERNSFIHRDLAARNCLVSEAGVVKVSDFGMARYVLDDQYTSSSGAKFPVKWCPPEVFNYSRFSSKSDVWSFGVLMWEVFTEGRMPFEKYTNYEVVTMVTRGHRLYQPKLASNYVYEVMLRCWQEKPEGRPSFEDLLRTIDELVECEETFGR

Measured: IC50

Kdr, sequence (P35968 20-1356): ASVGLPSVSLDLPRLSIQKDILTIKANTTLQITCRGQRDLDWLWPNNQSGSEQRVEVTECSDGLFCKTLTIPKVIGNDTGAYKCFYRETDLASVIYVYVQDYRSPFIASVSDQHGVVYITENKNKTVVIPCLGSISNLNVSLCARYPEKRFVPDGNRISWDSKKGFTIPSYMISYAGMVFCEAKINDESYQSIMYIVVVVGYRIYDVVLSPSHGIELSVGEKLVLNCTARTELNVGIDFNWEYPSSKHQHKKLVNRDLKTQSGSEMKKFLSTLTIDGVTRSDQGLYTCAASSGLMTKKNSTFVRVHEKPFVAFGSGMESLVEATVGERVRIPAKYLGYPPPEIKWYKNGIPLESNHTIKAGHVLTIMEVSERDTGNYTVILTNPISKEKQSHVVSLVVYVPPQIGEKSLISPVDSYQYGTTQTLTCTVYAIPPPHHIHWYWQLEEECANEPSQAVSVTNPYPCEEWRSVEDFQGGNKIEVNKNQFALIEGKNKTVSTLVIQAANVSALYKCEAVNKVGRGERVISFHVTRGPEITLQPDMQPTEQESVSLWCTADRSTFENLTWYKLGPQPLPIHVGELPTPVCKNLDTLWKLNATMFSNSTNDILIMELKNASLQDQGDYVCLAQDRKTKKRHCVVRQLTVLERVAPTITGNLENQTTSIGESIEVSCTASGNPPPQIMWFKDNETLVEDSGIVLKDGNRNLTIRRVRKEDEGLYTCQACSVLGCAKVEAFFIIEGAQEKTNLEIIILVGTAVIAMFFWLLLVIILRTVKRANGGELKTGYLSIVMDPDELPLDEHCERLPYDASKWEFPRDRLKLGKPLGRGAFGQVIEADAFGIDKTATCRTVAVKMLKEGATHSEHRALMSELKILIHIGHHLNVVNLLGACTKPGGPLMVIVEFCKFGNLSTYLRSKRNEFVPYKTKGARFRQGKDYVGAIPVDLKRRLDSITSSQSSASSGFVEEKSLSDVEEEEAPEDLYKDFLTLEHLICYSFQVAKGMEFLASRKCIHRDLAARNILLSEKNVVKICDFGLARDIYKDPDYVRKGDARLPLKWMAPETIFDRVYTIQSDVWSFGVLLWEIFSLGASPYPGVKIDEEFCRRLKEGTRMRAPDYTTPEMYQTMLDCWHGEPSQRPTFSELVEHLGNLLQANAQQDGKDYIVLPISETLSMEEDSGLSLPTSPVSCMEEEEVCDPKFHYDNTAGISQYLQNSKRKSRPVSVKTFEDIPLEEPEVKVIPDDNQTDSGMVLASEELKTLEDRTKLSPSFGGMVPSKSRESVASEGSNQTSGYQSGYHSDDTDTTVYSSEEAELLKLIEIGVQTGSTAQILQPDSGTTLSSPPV
B-Raf, sequence (P15056 whole entry): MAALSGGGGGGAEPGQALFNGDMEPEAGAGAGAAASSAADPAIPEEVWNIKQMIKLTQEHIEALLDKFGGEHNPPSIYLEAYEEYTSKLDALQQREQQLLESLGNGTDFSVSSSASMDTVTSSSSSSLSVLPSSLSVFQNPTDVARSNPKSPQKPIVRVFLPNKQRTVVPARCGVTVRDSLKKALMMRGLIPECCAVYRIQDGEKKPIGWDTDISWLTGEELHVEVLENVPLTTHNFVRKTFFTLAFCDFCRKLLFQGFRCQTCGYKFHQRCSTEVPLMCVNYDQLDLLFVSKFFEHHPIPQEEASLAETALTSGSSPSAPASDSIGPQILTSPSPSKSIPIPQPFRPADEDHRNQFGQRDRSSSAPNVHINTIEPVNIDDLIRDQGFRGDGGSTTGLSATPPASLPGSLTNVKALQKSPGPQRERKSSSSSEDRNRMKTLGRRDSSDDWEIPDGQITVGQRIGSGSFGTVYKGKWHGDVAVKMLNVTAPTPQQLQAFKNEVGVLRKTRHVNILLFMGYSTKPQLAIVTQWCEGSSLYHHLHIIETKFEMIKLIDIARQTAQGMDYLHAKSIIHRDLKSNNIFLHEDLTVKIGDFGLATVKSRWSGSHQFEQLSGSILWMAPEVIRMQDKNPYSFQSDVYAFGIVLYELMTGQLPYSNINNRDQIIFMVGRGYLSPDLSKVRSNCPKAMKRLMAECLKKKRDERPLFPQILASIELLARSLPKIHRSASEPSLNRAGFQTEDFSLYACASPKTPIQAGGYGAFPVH
MAP4K4, sequence (O95819 whole entry): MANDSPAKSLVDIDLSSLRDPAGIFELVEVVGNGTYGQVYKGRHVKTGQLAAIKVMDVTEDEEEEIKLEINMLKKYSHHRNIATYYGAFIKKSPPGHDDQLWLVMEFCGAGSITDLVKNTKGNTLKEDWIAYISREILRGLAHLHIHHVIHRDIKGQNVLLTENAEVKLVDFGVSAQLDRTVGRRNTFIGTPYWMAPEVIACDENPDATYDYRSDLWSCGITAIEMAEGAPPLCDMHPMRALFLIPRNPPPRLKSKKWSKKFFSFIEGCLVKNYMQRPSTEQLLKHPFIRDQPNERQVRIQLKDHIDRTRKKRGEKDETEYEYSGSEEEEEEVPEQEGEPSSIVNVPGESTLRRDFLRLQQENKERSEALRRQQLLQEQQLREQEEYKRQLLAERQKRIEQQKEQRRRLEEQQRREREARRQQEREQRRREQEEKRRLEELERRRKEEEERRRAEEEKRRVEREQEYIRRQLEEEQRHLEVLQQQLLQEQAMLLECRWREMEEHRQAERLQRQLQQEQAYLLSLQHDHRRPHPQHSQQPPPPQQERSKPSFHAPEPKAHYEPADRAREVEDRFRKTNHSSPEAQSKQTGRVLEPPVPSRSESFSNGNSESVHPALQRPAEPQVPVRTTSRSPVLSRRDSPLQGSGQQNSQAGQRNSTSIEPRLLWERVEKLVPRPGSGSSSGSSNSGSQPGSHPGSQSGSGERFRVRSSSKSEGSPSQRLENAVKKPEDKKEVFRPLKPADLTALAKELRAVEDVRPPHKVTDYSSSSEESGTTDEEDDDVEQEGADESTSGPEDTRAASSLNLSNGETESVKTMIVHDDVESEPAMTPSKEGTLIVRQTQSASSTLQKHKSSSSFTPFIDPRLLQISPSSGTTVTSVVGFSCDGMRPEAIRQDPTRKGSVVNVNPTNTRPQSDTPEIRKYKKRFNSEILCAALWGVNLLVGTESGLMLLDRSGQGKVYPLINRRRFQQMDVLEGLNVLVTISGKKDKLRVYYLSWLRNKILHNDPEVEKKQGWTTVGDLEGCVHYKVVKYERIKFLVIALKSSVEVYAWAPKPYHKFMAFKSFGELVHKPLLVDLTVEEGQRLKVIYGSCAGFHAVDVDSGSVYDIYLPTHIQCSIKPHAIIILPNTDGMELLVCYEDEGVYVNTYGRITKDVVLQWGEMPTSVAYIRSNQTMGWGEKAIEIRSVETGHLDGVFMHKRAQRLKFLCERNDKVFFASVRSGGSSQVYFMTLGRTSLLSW
Flt1, sequence (P17948 27-1338): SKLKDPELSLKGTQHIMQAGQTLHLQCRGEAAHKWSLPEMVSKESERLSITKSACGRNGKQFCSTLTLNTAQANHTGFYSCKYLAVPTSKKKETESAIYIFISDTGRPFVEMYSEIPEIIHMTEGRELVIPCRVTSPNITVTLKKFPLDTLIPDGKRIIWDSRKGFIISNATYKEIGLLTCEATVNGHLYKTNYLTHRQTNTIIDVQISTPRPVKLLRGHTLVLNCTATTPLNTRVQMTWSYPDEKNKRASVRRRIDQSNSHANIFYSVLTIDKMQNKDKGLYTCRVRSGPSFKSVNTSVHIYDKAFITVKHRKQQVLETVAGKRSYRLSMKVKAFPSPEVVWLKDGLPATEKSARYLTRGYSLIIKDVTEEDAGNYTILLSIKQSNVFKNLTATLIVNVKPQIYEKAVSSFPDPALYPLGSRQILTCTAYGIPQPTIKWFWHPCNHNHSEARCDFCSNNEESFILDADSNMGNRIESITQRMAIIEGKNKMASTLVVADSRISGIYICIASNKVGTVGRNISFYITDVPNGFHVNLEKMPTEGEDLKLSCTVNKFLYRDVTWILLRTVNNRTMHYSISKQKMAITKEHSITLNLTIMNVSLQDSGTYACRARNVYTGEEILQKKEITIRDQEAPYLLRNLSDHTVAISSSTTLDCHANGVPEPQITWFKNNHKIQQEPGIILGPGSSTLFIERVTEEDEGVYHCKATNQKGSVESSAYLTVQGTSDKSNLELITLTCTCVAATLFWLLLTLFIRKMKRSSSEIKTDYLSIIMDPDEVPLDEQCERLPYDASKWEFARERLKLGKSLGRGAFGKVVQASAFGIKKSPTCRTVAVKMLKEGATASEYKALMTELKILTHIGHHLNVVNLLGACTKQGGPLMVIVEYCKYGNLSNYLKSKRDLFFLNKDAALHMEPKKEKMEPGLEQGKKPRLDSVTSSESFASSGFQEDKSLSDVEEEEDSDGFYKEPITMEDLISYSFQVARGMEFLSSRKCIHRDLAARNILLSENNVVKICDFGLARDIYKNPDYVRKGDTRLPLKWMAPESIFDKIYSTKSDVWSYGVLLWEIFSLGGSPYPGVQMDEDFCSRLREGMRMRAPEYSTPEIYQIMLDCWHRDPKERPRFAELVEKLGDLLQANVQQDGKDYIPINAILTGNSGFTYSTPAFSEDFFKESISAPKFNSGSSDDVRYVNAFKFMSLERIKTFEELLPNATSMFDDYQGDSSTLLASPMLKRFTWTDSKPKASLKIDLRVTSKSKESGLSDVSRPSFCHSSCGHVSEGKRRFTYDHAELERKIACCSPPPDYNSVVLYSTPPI
B-Raf V600E, sequence (P15056 whole entry V600E): as the sequence (P15056 whole entry) above, with V600E counted along it

COc1ccnc2[nH]cc(C(=O)c3cccc(NS(=O)(=O)c4ccc(C(F)(F)F)cc4)c3F)c12 [P-2060, N-[2-Fluoro-3-(4-methoxy-1H-pyrrolo[2,3-b]pyridine-3-carbonyl)-phenyl]-4-trifluoromethyl-benzenesulfonamide]
≤ 10 µM: [1] | [2] | [3] | [4] | [5] | [6]

CCCS(=O)(=O)Nc1ccc(F)c(C(=O)c2c[nH]c3ncc(-c4ccc(NC(C)=O)nc4)cc23)c1F [P-2193, N-(5-{3-[2,6-Difluoro-3-(propane-1-sulfonylamino)-benzoyl]-1H-pyrrolo[2,3-b]pyridin-5-yl}-pyridin-2-yl)-acetamide]
not listed: [5] | [12] | [13]
≤ 10 µM: all other assays above

CCCS(=O)(=O)Nc1ccc(F)c(C(=O)c2c[nH]c3ncc(-c4ccc(N)nc4)cc23)c1F [P-2214, Propane-1-sulfonic acid {3-[5-(6-amino-pyridin-3-yl)-1H-pyrrolo[2,3-b]pyridine-3-carbonyl]-2,4-difluoro-phenyl}-amide]
not listed: [5]
≤ 10 µM: all other assays above

CCCCS(=O)(=O)Nc1ccc(F)c(C(=O)c2c[nH]c3ncc(-c4ccc(F)cc4)cc23)c1F [P-2301, Butane-1-sulfonic acid {2,4-difluoro-3-[5-(4-fluoro-phenyl)-1H-pyrrolo[2,3-b]pyridine-3-carbonyl]-phenyl}-amide]
not listed: [6] | [9] | [10] | [12] | [13]
≤ 10 µM: all other assays above

O=C(c1c(F)ccc(NS(=O)(=O)C(F)(F)F)c1F)c1c[nH]c2ncc(-c3ccc(F)cc3)cc12 [P-2344, N-{2,4-Difluoro-3-[5-(4-fluoro-phenyl)-1H-pyrrolo[2,3-b]pyridine-3-carbonyl]-phenyl}-C,C,C-trifluoro-methanesulfonamide]
≤ 10 µM: [1] | [2] | [7] | [3] | [8] | [4] | [5]

Cn1cc(-c2cnc3[nH]cc(C(=O)c4cc(NS(=O)(=O)C5CCCCC5)ccc4F)c3c2)cn1 [P-2434, Cyclohexanesulfonic acid {4-fluoro-3-[5-(1-methyl-1H-pyrazol-4-yl)-1H-pyrrolo[2,3-b]pyridine-3-carbonyl]-phenyl}-amide]
not listed: [5] | [10]
≤ 10 µM: all other assays above
